In patent US20040198819A1, “Biological response modifier composition and uses thereof” (priority 2001, published 2004):

Key:
peritoneal macrophages [1] = test: TNF-α release by mouse peritoneal macrophages (ELISA); format: cell-based, C57BL/6 mice; conditions: in vitro culture
Protocol: (§1) Peritoneal macrophages are harvested from C57BL/6 mice 72 hours after intraperitoneal injection of 1.5 ml of 4% protease peptone. The macrophages are then stimulated in vitro with medium alone, 50 ng LPS, or BRM. Measurements of the stimulation are performed with respect to TNF (by ELISA) and NO (by spectrophotometric assay using the Greiss reagent) levels in duplicate experiments.
In vitro synergy of BRM with IFN-γ for TNF-α release is studied using the same peritoneal mouse macrophages derived from C57BL/6 mice treated as above. […] The same macrophages stimulated with either LPS or IFN-γ release almost 3000 pg/ml of TNF-α.

peritoneal macrophages [2] = test: Nitric oxide release by mouse peritoneal macrophages (Greiss reagent); format: cell-based, C57BL/6 mice; conditions: in vitro
Protocol: as §1
In vitro synergy of BRM with LPS for nitric oxide (NO) is addressed in the same procedure as above, except NO is determined in the supernatant of the treated macrophages. As above, the assay for NO is spectrophotometric and uses a Greiss reagent.
In vitro synergy of BRM with IFN-γ for NO release is studied, using the same peritoneal mouse macrophages derived from C57BL/6 mice treated as above.

## IFN-γ: interferon gamma, conventional macrophage activator
Peritoneal macrophages [1]
  release of TNF-α: ~3000 pg/mL
Peritoneal macrophages [2]
  release of NO by macrophages, stimulus alone: enhanced NO production
